From patent publication US20240247031A1, “COMPOSITION FOR TREATING CANCER CONTAINING TELOMERASE-TARGETING GNRH ANTAGONIST-DERIVED PEPTIDE HS1002” (Research & Business Foundation Sungkyunkwan University, priority 2023, published 2024)

Assays:
telomerase = assay: Telomerase activity quantification qPCR in treated LNCaP cells (FIG. 10, 11); assay type: cell-based, human; conditions: FIG. 11
Procedure: After treatment with GV1001, HS1001, HS1002, and GnRH, the changes in hTERT mRNA and protein expression level were investigated for each peptide. The drug treatment was performed every 24 h considering the stability of peptides in aqueous solutions. To investigate the telomerase activity reducing effect of the peptides, prostate cancer cell lines (LNCaP) were treated with each drug at 300 μM every 24 h for a total of 72 h and then measured for telomerase activity through qPCR. The proteins in a cell lysate were quantified to obtain a telomerase product extended by the same amount of proteins, and qPCR was performed using the telomerase as a template.
In the treatment with the peptides, the change in telomerase activity was investigated. The cells were cultured in 100-mm plates each, and about 24 h later, the cells were treated with the peptides synthesized in Example 3 at a concentration of 300 μM before incubation. The cells were cultured in a 37° C., 5% CO2 incubator using 1% FBS RPMI media. The cells were harvested 72 h after the peptide treatment and measured for telomerase activity. A telomerase activity quantification qPCT analysis kit (ScienCell, Carlsbad, CA, USA) was used.

[1] = test system: c-Myc, AKT, ERK1/2 in LNCaP tumor xenografts; assay: Western blot of c-Myc and signaling proteins in LNCaP-xenografted tumors (FIG. 14); assay type: in vivo, mouse; conditions: LNCaP xenograft; HS1002 1 mg/kg/day, LA 0.1 mg/kg/day s.c.
Procedure: The cells and tumor tissues were homogenized using the PRO-PREP™ extraction solution (iNtRON Biotechnology, Seongnam, Korea). After incubation, the homogenate was centrifuged at 16,000×g for 20 min at 4° C., and the supernatant was collected for western blot analysis. Subsequently, an equivalent quantity of protein was separated using sodium dodecyl sulfate polyacrylamide gels and transferred onto a polyvinylidene difluoride (PVDF) membrane. The PVDF membranes were incubated with the primary antibodies overnight at 4° C., washed with tris-buffered saline, and then incubated with HRP-conjugated anti-mouse or anti-rabbit antibodies. The bands were visualized using a ChemiDoc imaging system (Bio-Rad, Hercules, CA, USA). The band intensities were determined using an Image J software.
All mice were purchased from Central Lab Animal Inc. ([…]). They were raised in a 12 h environmental light/dark cycle with controlled temperature (22±2° C.) conditions. The experimental protocol was approved by the Sungkyunkwan University Institutional Animal Care and Use Committee (SKKUIACUC2021-06-27-1, SKKUIACUC2023-01-07-1). For the establishment of tumors, LNCaP (1×10^7), MC38 (2×10^5), and 4T1 (1×10^6) suspended in serum-free media containing 50% Matrigel was subcutaneously administered in the right flank of mice, respectively. The tumor volumes (V) were calculated using a caliper and the standard equation: V (mm^3)=0.52 (ab^2) (a=length, b=width). Once the tumor reached 100-200 mm^3, the mice were randomly divided into different groups and subcutaneously injected with a vehicle or each peptide every day.
To investigate the anticancer effect of HS1002, the present inventors observed the volume of cancer cells after transplanting the cancer cells into experimental animals. Specifically, mice (4-week-old male BALB/c nude mice; Central Lab. Animal Inc., Seoul, Korea) were prepared, and tumor cells (1×10^7 LNCaP cells) suspended in 1 mL of a serum-free medium containing 50% Matrigel were percutaneously injected into the upper flank of each nude mouse. When the tumor cell volume reached about 200 mm^3, the mice were randomly assigned to a vehicle control group, a leuprolide acetate-treated group, and test groups (GV1001-treated group and HS1002-treated group), respectively. Leuprolide acetate (0.1 mg/kg/day) and GV1001 and HS1002 (1 mg/kg/day) were injected subcutaneously for 13 days.

hTERT = hTERT mRNA and protein expression, western blot and qPCR (FIG. 10, 11); assay type: cell-based, human; conditions: LNCaP, different concentrations, western blot
Procedure: To analyze the changes in the hTERT expression level and telomerase activity by the treatment with the produced peptides, real-time PCR was performed. Total RNA was extracted from cells by using an Easy-blue RNA extraction reagent (Intron, Korea), and subsequently, the extracted RNA was reverse transcribed using M-ML V reverse transcriptase (Invitrogen, CA). The PCR reaction was then performed using a LightCycler 480 SYBR Green I Master (Roche, Germany) according to the manufacturer's instructions. […]
Quantitative real-time RT-PCR (qRT-PCR) was performed using a Power SYBR Green 1-Step Kit and an ABI 7000 Real Time PCR System (Applied Biosystems, Carlsbad, CA, USA) according to the manufacturer's indications. […] The results were expressed as the ratio of target PCR product to GAPDH product. […] The quantification was performed using the ΔΔCT method (Applied Biosystems) with the RQ manager 1.2 software. Data are expressed as mean±SD. […]
After treatment with GV1001, HS1001, HS1002, and GnRH, the changes in hTERT mRNA and protein expression level were investigated for each peptide. […] To investigate the telomerase activity reducing effect of the peptides, prostate cancer cell lines (LNCaP) were treated with each drug at 300 μM every 24 h for a total of 72 h and then measured for telomerase activity through qPCR. […]

In the case of CCNC(=O)[C@@H]1CCCN1C(=O)[C@@H](NC(=O)[C@H](Cc1ccccc1)NC(=O)[C@H](CCCNC(=N)N)NC(=O)[C@H](CC(C)C)NC(=O)[C@H](CCCNC(=N)N)NC(=O)[C@H](Cc1ccc(O)cc1)NC(=O)[C@H](CO)NC(=O)[C@H](Cc1c[nH]c2ccccc12)NC(=O)[C@H](Cc1c[nH]cn1)NC(=O)[C@@H]1CCC(=O)N1)[C@@H](C)CC [HS1002], the “telomerase activity compared with GV1001” value (telomerase) is reported as “better telomerase activity than GV1001”, the “expression of c-Myc in tumor tissue” value [1] is reported as “significantly downregulated” and the “expression of p-AKT in tumor tissue” value [1] is reported as “significantly downregulated”. The “expression of p-ERK1/2 in tumor tissue” value [1] was “significantly downregulated” and the “hTERT protein expression, concentration dependence” value (hTERT) was “reduced with an increasing concentration”.
